{
  "source": "patent EP4692082A1",
  "about": "“CRYSTAL FORM OF 2,6-PIPERIDINEDIONE COMPOUND, AND PREPARATION METHOD THEREFOR AND USE THEREOF” (Zhangzhou Pien Tze Huang Pharmaceutical Co., Ltd., priority 2023, dated 2024)",
  "key": {"IKZF1": {"molecular_target": "IKZF1 (Homo sapiens, UniProt Q13422+Q96SW2)", "sequence (Q13422 whole entry)": "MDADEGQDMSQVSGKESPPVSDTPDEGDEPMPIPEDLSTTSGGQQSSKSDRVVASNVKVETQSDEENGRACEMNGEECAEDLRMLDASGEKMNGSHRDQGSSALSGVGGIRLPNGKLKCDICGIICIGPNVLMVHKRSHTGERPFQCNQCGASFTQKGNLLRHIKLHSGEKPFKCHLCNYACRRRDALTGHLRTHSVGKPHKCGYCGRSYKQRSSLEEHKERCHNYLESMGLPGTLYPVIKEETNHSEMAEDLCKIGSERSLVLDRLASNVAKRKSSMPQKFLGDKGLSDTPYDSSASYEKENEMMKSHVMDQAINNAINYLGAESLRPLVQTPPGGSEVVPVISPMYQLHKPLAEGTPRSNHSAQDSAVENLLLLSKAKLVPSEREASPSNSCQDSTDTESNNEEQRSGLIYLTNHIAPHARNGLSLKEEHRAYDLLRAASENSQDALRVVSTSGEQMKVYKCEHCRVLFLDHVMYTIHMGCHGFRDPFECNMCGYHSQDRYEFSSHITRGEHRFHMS", "sequence (Q96SW2 whole entry)": "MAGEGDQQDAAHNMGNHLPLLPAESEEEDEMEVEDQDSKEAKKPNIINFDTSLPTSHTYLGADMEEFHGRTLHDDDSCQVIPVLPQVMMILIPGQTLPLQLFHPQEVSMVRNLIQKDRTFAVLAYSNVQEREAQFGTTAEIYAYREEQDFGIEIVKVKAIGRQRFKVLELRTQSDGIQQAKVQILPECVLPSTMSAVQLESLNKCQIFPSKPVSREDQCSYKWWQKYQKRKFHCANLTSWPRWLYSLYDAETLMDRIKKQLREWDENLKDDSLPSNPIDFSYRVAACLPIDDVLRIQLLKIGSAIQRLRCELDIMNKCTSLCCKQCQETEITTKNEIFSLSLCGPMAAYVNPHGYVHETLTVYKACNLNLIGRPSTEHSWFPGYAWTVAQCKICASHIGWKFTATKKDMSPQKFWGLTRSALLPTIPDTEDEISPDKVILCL", "sequence (Q16531 whole entry partner)": "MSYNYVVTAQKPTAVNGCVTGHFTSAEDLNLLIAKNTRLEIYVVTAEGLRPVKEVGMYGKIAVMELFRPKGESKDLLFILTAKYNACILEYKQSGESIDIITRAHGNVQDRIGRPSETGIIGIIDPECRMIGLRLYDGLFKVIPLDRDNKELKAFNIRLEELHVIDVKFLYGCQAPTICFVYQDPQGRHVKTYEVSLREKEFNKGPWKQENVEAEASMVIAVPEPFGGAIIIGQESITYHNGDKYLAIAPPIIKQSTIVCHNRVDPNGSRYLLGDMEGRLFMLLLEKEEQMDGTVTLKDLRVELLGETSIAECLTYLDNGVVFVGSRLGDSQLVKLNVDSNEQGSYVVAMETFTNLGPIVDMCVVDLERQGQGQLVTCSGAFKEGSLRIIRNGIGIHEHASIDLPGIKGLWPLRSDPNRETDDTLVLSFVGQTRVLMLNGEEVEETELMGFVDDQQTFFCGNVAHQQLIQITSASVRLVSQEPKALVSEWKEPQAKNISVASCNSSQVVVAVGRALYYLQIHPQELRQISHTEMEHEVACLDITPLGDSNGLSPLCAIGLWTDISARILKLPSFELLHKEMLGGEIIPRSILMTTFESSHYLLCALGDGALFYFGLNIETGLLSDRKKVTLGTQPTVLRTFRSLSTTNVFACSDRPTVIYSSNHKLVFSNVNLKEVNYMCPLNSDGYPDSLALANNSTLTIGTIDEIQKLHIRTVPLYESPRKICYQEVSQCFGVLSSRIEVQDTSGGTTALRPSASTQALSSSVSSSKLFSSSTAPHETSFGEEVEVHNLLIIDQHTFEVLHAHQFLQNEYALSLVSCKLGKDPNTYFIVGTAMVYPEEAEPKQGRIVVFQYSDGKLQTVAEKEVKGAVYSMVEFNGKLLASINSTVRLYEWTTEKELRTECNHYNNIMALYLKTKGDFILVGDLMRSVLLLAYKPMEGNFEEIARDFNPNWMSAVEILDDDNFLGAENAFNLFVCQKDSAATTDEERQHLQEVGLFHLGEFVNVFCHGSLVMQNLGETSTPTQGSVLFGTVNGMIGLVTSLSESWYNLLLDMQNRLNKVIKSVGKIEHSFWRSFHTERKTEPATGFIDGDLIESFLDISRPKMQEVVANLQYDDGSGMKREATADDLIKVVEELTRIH", "experiment": "In cell western analysis of IKZF1 protein expression level in MM.1S cells", "method": "(§2) • 1) MM.1S cells in the logarithmic growth phase were seeded into a 96-well plate at 1.2x10^5 cells per well and cultured overnight. • 2) On the second day, drug treatment was initiated with a starting concentration of 300 nM, followed by a 3-fold dilution in triplicate wells, with 10 concentration gradients (containing DMSO), and incubated for 24 hours in a culture incubator. • 3) The mixture was centrifuged, and the cell supernatant was carefully removed. […] The mixture was incubated at room temperature on a shaker for 5 min. • 12) The washing step was repeated 4 times. • 13) The secondary antibody diluent was prepared by adding Tween 20 to the Licor [sequence] blocking buffer at a final concentration of 0.2%. • 14) The fluorescent secondary antibody was diluted in the dark (1:800 dilution). To 400 µL of the secondary antibody diluent, 0.5 µLeach of IRDye 800CW and IRDye 680CW was added (the corresponding fluorescent secondary antibody for the primary antibody). • 15) 50 µL of the diluted fluorescent secondary antibody was added to each well, followed by incubation at room temperature on a shaker in the dark for 60 min. • 16) The secondary antibody was removed, and 200 µL of PBST was added along the well wall without touching the bottom cells. […]\n(§3) GraphPad Prism 6 software was utilized to fit the curve with the inhibition rate data, and the DC50 value was calculated."}, "[1]": {"experiment": "Pharmacokinetic evaluation in beagle dogs", "format": "in vivo", "details": "Beagle dogs (fed)", "excerpt": "(§1) Male beagle dogs were selected as the experimental animals in this study. The LC/MS/MS method was employed to quantitatively determine the plasma drug concentrations at different time points after intravenous injection or intragastric administration of the test compound, aiming to evaluate the pharmacokinetic characteristics of the compound of the present disclosure in beagle dogs.\nBeagle dogs (male, 7 to 10 kg, Beijing Mars Biotechnology Co., Ltd.).\nA solution of the test compound was slowly injected intravenously into beagle dogs (fed) via the peripheral vein (vehicle: 5% DMSO/10% Solutol/85% H2O), or administered intragastrically to beagle dogs (fed). For intravenous administration, 0.5 mL of blood was collected from the peripheral vein at 0.083, 0.25, 0.5, 1, 2, 4, 6, 8, and 24 h after administration, placed in EDTA-2K anticoagulant tubes, and centrifuged at 3200 g for 10 minutes at 2 to 8°C to separate the supernatant. For intragastric administration, 0.5 mL of blood was collected from the peripheral vein at 0.083, 0.25, 0.5, 1, 2, 4, 6, 8, and 24 h after administration, placed in EDTA-2K anticoagulant tubes, and centrifuged at 3200 g for 10 minutes at 2 to 8°C to separate the supernatant. Plasma drug concentrations were determined by the LC-MS/MS method, and relevant pharmacokinetic parameters were calculated using Phoenix WinNonlin 6.3 or 8.3.5 pharmacokinetic software with non-compartmental model linear-log trapezoidal method."}, "[2]": {"experiment": "Pharmacokinetic evaluation in mice", "format": "in vivo, C57BL/6 or C57 mice", "excerpt": "as §1, with “C57BL/6 or C57 male mice were” for “Male beagle dogs were”, “the test” for “the experimental”, “animals for” for “animals in”, “at various” for “at different”, “in mice.” for “in beagle dogs.”\nC57BL/6 or C57 mice (male, 20 to 30g, 7 to 10 weeks old, Beijing Vital River).\nA clear solution of the test compound was injected intravenously into the tail vein of C57BL/6 mice (fasted overnight) (vehicle: 10% DMSO/10% solutol/80% H2O), or administered intragastrically to C57 mice (fed). […] The mixture was thoroughly vortexed and mixed, and centrifuged at 6000 g for 3 minutes at 2 to 8°C. […] The mixture was thoroughly vortexed and mixed, and centrifuged at 6000 g for 3 minutes at 2 to 8°C. Plasma drug concentrations were determined by the LC-MS/MS method, and relevant pharmacokinetic parameters were calculated using Phoenix WinNonlin 8.2.0 pharmacokinetic software with non-compartmental model linear-log trapezoidal method. Table 20. Pharmacokinetic parameters of the compound of the present disclosure in mice"}, "IKZF3": {"molecular_target": "IKZF3 (Homo sapiens, UniProt Q96SW2+Q9UKT9)", "sequence (Q9UKT9 whole entry)": "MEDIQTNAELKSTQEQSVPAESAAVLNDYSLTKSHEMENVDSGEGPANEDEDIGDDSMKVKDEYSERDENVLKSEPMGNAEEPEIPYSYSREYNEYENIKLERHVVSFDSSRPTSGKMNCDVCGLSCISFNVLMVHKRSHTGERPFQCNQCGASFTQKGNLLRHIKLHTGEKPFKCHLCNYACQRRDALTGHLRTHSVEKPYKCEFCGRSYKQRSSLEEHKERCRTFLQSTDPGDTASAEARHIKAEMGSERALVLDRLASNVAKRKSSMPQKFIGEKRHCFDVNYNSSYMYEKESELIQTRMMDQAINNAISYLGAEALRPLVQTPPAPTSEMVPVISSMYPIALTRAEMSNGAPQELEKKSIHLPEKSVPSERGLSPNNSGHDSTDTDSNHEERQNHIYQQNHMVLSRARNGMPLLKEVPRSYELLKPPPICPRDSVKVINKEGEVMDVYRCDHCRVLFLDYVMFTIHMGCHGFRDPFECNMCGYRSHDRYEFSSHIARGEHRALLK", "sequence (Q96SW2 whole entry)": "as the sequence (Q96SW2 whole entry) above", "sequence (Q16531 whole entry partner)": "as the sequence (Q16531 whole entry partner) above", "experiment": "In cell western analysis of IKZF3 protein expression level in MM.1S cells", "method": "as §2, §3"}, "IRAK4": {"molecular_target": "T1, IRAK4 (Homo sapiens, UniProt Q9NWZ3)", "T1 construct": "expressed in transfected cells; host or cells: K562 IRAK4-HiBiT cells", "T1 sequence (Q9NWZ3 1-460)": "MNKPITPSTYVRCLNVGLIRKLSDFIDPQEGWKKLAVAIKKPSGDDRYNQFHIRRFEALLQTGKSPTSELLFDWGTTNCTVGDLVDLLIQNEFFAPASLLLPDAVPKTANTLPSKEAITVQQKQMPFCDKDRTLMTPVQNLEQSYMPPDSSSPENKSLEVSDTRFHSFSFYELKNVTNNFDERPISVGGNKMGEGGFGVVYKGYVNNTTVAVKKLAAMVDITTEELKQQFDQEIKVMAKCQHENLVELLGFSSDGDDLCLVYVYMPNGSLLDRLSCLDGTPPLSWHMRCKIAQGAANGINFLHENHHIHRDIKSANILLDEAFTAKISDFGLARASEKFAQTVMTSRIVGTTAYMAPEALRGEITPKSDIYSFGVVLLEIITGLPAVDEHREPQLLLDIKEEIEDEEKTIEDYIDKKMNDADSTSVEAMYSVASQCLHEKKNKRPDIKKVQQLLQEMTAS", "experiment": "Target protein degradation in K562 IRAK4-HiBiT cells (Nano-Glo HiBiT)", "format": "cell-based", "description": "• Cells: K562 IRAK4-HiBiT cells • Culture medium: RPMI 1640 + 10% fetal bovine serum + 2 mM glutamine + 1 mM sodium pyruvate + penicillin/streptomycin • Positive control: 1000 nM; negative control: 0.1% DMSO Table 6. Reagents and consumables […]\n• (1) The cell culture medium was discarded, and the cells were washed once with DPBS, digested with trypsin, and counted to prepare a cell suspension of […]. • (2) 25 µL/well of cell suspension was added to the assay plate containing the test compound using Multidrop Combi at medium speed. • (3) The assay plate containing cells was returned to an incubator with 5% CO2 at 37°C and incubated for 16 to 18 hours.\n• (1) 25 µL/well of assay reagent (NanoGlo lysis buffer + substrate + LgBit protein) was added to the assay plate using Multidrop Combi at high speed, and the plate was shaken for 10 minutes. • (2) The plate was centrifuged at 2000 rpm for 1 minute to remove air bubbles. • (3) The plate was read on Envision using US Luminescence detection method.\nThe degradation rate (DR) of the test compound was calculated using the following formula: DR (%) = (RLU vehicle control - RLU compound)/(RLU vehicle control - RLU positive control)*100%, where the vehicle control served as the blank control. […]"}, "[3]": {"details": "MM1.S, read-out: Maximum Degradation Rate Dmax"}, "[4]": {"details": "Intragastric Administration, 5 mg/kg"}, "[5]": {"details": "Intragastric Administration, 15 mg/kg"}, "[6]": {"details": "Intravenous Injection (0.5 mg/kg)"}, "[7]": {"details": "Intragastric administration (10 mg/kg) (fed)"}},
  "note": "Where a name gives a salt, the structure may show the parent alone.",
  "data": [
    {"smiles": "O=C1CCC(c2noc3ccc4c(NC(=O)CN5CCN(C[C@H]6CC[C@H](n7cc(NC(=O)c8coc(-c9ccnc(NCC%10CC%10)c9)n8)c(C(F)F)n7)CC6)CC5)cccc4c23)C(=O)N1", "note": "(relative stereo) [Hydrochloride of Compound of Formula (I)]", "values": [
      {"measurement": "DC50", "setting": "IKZF1; IKZF1, MM.1S cells, 24 hours", "result": 23.4, "unit": "nM"},
      {"measurement": "Dmax", "setting": "IKZF1; [3]", "result": 72.3, "unit": "%"},
      {"measurement": "Area Under the Drug-Time Curve (0-inf)", "setting": "[1]; [4]", "result": 3.20, "unit": "µM·h"},
      {"measurement": "Peak Concentration", "setting": "[1]; [4]", "result": 0.41, "unit": "µM"},
      {"measurement": "Time to Peak Concentration", "setting": "[1]; [4]", "result": 4.00, "unit": "h"},
      {"measurement": "Area Under the Drug-Time Curve (0-inf)", "setting": "[1]; [5]", "result": 8.02, "unit": "µM·h"},
      {"measurement": "Peak Concentration", "setting": "[1]; [5]", "result": 0.87, "unit": "µM"},
      {"measurement": "Time to Peak Concentration", "setting": "[1]; [5]", "result": 4.00, "unit": "h"},
      {"measurement": "Apparent Distribution Volume", "setting": "[1]; [6]", "result": 5.83, "unit": "L/kg"},
      {"measurement": "Area Under the Drug-Time Curve (0-inf)", "setting": "[1]; [6]", "result": 0.44, "unit": "µM·h"},
      {"measurement": "Area Under the Drug-Time Curve (0-inf)", "setting": "[2]; [7]", "result": 4.47, "unit": "µM·h"},
      {"measurement": "Peak Concentration", "setting": "[2]; [7]", "result": 0.54, "unit": "µM"},
      {"measurement": "Time to Peak Concentration", "setting": "[2]; [7]", "result": 1.00, "unit": "h"},
      {"measurement": "Area Under the Drug-Time Curve (0-inf)", "setting": "[2]; Intravenous Injection (2 mg/kg) (fasted)", "result": 5.40, "unit": "µM·h"},
      {"measurement": "DC50", "setting": "IKZF3; IKZF3, MM.1S cells, 24 hours", "result": 20.6, "unit": "nM"},
      {"measurement": "Dmax", "setting": "IKZF3; [3]", "result": 73.5, "unit": "%"},
      {"measurement": "Dmax", "setting": "IRAK4; K562, read-out: Maximum Degradation Rate", "result": 108, "unit": "%"},
      {"measurement": "DC50", "setting": "IRAK4; K562 IRAK4-HiBiT cells, incubated 16 to 18 hours", "result": 4.87, "unit": "nM"}
    ]}
  ]
}
